These results are taken from US20060078504A1, “Sustanined-release pharmaceutical composition for lung administration” (priority 2003, published 2006).

The data set can be described thus: Test Example 1: serum theophylline pharmacokinetics after intratracheal administration of solutions A to D to rats. In kind it is in vivo, Wistar male rats. As to conditions: solution A, intratracheal vs intravenous (femoral vein), rat, FIG. 1.

Method: Wistar male rats (body weight about 220 g) fasted for about 18 hours were used as experimental animals. […] That is, the rats were anesthetized with pentobarbital (about 32 mg/kg) and secured on their back on animal boards, the tracheas were exposed through a longitudinal incision. A section of polyethylene tube (i.d. 1.5 mm, o.d. 2.3 mm) 2.5 cm in length was inserted through the tracheal incision for a distance of 0.6 cm between the forth and fifth tracheal rings caudal to the thyroid cartilage. Each of one hundred microliters of drug solutions A-D was drawn into a glass microsyringe, and then rat was maintained at an angle of 80°. The tip of syringe was inserted through the polyethylene tube to 1-2 mm above the bifurcation of the trachea. Then, the solution was injected over a period of 1-2 sec. About 45 sec after the administration, the rat was positioned at an angle of 10° and the incision in the skin was then closed with suture.
The theophylline concentrations in the obtained serum were measured by HPLC.

As for `Cn1c(=O)c2[nH]cnc2n(C)c1=O` [theophylline], the “pulmonary absorption compared with intravenous administration (in words)” value was “as quick and effective as achieved by intravenous administration”.
